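Test compounds were applied to cells in 96-well plates for 48 hours at 5 doses. Here, GI50 denotes the concentration required for 50% inhibition of growth. TGI: concentration producing complete growth inhibition.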
Columns and labels:
Test in all cases: NCI-60 cell line screen, 48 h
786-0 renal = system: 786-0 renal
A498 renal = system: A498 renal
A549 NSCLC = system: A549 NSCLC
ACHN renal = system: ACHN renal
BT-549 breast = system: BT-549 breast
CAKI-1 renal = system: CAKI-1 renal
CCRF-CEM leukemia = system: CCRF-CEM leukemia
COLO 205 colon = system: COLO 205 colon
DU-145 prostate = system: DU-145 prostate
EKVX NSCLC = system: EKVX NSCLC
HCC-2998 colon = system: HCC-2998 colon
HCT-116 colon = system: HCT-116 colon
HCT-15 colon = system: HCT-15 colon
HL-60(TB) leukemia = system: HL-60(TB) leukemia
HOP-62 NSCLC = system: HOP-62 NSCLC
HOP-92 NSCLC = system: HOP-92 NSCLC
HT29 colon = system: HT29 colon
IGROV1 ovarian = system: IGROV1 ovarian
K-562 leukemia = system: K-562 leukemia
KM12 colon = system: KM12 colon
LOX IMVI melanoma = system: LOX IMVI melanoma
M14 melanoma = system: M14 melanoma
MALME-3M melanoma = system: MALME-3M melanoma
MCF7 breast = system: MCF7 breast
MDA-MB-231 breast = system: MDA-MB-231 breast
MDA-MB-435 = system: MDA-MB-435
MOLT-4 leukemia = system: MOLT-4 leukemia
NCI-H226 lung = system: NCI-H226 lung
NCI-H23 lung = system: NCI-H23 lung
NCI-H460 lung = system: NCI-H460 lung
NCI-H522 lung = system: NCI-H522 lung
NCI/ADR-RES ovarian = system: NCI/ADR-RES ovarian
OVCAR-3 ovarian = system: OVCAR-3 ovarian
OVCAR-4 ovarian = system: OVCAR-4 ovarian
OVCAR-5 ovarian = system: OVCAR-5 ovarian
OVCAR-8 ovarian = system: OVCAR-8 ovarian
PC-3 prostate = system: PC-3 prostate
RPMI-8226 leukemia = system: RPMI-8226 leukemia
RXF 393 renal = system: RXF 393 renal
SF-268 CNS = system: SF-268 CNS
SF-295 CNS = system: SF-295 CNS
SF-539 CNS = system: SF-539 CNS
SK-MEL-2 melanoma = system: SK-MEL-2 melanoma
SK-MEL-28 melanoma = system: SK-MEL-28 melanoma
SK-MEL-5 melanoma = system: SK-MEL-5 melanoma
SN12C renal = system: SN12C renal
SNB-19 CNS = system: SNB-19 CNS
SNB-75 CNS = system: SNB-75 CNS
SR leukemia = system: SR leukemia
SW-620 colon = system: SW-620 colon
T-47D breast = system: T-47D breast
TK-10 renal = system: TK-10 renal
U251 CNS = system: U251 CNS
UACC-257 melanoma = system: UACC-257 melanoma
UACC-62 melanoma = system: UACC-62 melanoma
UO-31 renal = system: UO-31 renal

Compound: ClCc1cccc(Cn2cnc3c(Cl)nc(Cl)nc32)c1
- GI50 (786-0 renal): 12.4 µM
- TGI (786-0 renal): 26.8 µM
- GI50 (A498 renal): 2.42 µM
- TGI (A498 renal): 6.53 µM
- GI50 (A549 NSCLC): 3.08 µM
- TGI (A549 NSCLC): 9.89 µM
- GI50 (ACHN renal): 1.91 µM
- TGI (ACHN renal): 3.72 µM
- GI50 (BT-549 breast): 1.69 µM
- TGI (BT-549 breast): 3.23 µM
- GI50 (CAKI-1 renal): 2.22 µM
- TGI (CAKI-1 renal): 5.85 µM
- GI50 (CCRF-CEM leukemia): 2.72 µM
- TGI (CCRF-CEM leukemia): > 100 µM
- GI50 (COLO 205 colon): 2.22 µM
- TGI (COLO 205 colon): 5.39 µM
- GI50 (DU-145 prostate): 1.59 µM
- TGI (DU-145 prostate): 2.98 µM
- GI50 (EKVX NSCLC): 1.74 µM
- TGI (EKVX NSCLC): 3.35 µM
- GI50 (HCC-2998 colon): 1.61 µM
- TGI (HCC-2998 colon): 3.15 µM
- GI50 (HCT-116 colon): 1.64 µM
- TGI (HCT-116 colon): 3.12 µM
- GI50 (HCT-15 colon): 2.41 µM
- TGI (HCT-15 colon): 6.84 µM
- GI50 (HL-60(TB) leukemia): 0.642 µM
- TGI (HL-60(TB) leukemia): > 100 µM
- GI50 (HOP-62 NSCLC): 2.29 µM
- TGI (HOP-62 NSCLC): 4.38 µM
- GI50 (HOP-92 NSCLC): 1.84 µM
- TGI (HOP-92 NSCLC): 3.63 µM
- GI50 (HT29 colon): 2.39 µM
- TGI (HT29 colon): > 100 µM
- GI50 (IGROV1 ovarian): 2.27 µM
- TGI (IGROV1 ovarian): 5.18 µM
- GI50 (K-562 leukemia): 1.6 µM
- TGI (K-562 leukemia): > 100 µM
- GI50 (KM12 colon): 1.82 µM
- TGI (KM12 colon): 3.79 µM
- GI50 (LOX IMVI melanoma): 1.69 µM
- TGI (LOX IMVI melanoma): 3.4 µM
- GI50 (M14 melanoma): 1.79 µM
- TGI (M14 melanoma): 3.41 µM
- GI50 (MALME-3M melanoma): 2.02 µM
- TGI (MALME-3M melanoma): 4.47 µM
- GI50 (MCF7 breast): 2.04 µM
- TGI (MCF7 breast): 6.4 µM
- GI50 (MDA-MB-231 breast): 1.95 µM
- TGI (MDA-MB-231 breast): 3.76 µM
- GI50 (MDA-MB-435): 1.69 µM
- TGI (MDA-MB-435): 3.26 µM
- GI50 (MOLT-4 leukemia): 3.35 µM
- TGI (MOLT-4 leukemia): > 100 µM
- GI50 (NCI-H226 lung): 3.24 µM
- GI50 (NCI-H23 lung): 2.14 µM
- TGI (NCI-H23 lung): 5.09 µM
- GI50 (NCI-H460 lung): 2.36 µM
- TGI (NCI-H460 lung): 6.25 µM
- GI50 (NCI-H522 lung): 2.72 µM
- TGI (NCI-H522 lung): 5.32 µM
- GI50 (NCI/ADR-RES ovarian): 2.42 µM
- TGI (NCI/ADR-RES ovarian): 5.23 µM
- GI50 (OVCAR-3 ovarian): 1.59 µM
- TGI (OVCAR-3 ovarian): 3.21 µM
- GI50 (OVCAR-4 ovarian): 5.51 µM
- TGI (OVCAR-4 ovarian): 20.1 µM
- GI50 (OVCAR-5 ovarian): 6.52 µM
- TGI (OVCAR-5 ovarian): 20.2 µM
- GI50 (OVCAR-8 ovarian): 1.81 µM
- TGI (OVCAR-8 ovarian): 3.51 µM
- GI50 (PC-3 prostate): 2.38 µM
- TGI (PC-3 prostate): 5.02 µM
- GI50 (RPMI-8226 leukemia): 3.29 µM
- TGI (RPMI-8226 leukemia): > 100 µM
- GI50 (RXF 393 renal): 0.76 µM
- TGI (RXF 393 renal): 2.1 µM
- GI50 (SF-268 CNS): 2.5 µM
- TGI (SF-268 CNS): 6.64 µM
- GI50 (SF-295 CNS): 4.37 µM
- TGI (SF-295 CNS): 17.1 µM
- GI50 (SF-539 CNS): 2.2 µM
- TGI (SF-539 CNS): 14.1 µM
- GI50 (SK-MEL-2 melanoma): 1.98 µM
- TGI (SK-MEL-2 melanoma): 4.44 µM
- GI50 (SK-MEL-28 melanoma): 2.34 µM
- TGI (SK-MEL-28 melanoma): 5.38 µM
- GI50 (SK-MEL-5 melanoma): 1.59 µM
- TGI (SK-MEL-5 melanoma): 3.05 µM
- GI50 (SN12C renal): 2.14 µM
- TGI (SN12C renal): 4.66 µM
- GI50 (SNB-19 CNS): 1.96 µM
- TGI (SNB-19 CNS): 4.17 µM
- GI50 (SNB-75 CNS): 2.04 µM
- TGI (SNB-75 CNS): 3.89 µM
- GI50 (SR leukemia): 2.49 µM
- TGI (SR leukemia): > 100 µM
- GI50 (SW-620 colon): 1.57 µM
- TGI (SW-620 colon): 3.5 µM
- GI50 (T-47D breast): 1.97 µM
- TGI (T-47D breast): 4.5 µM
- GI50 (TK-10 renal): 1.74 µM
- TGI (TK-10 renal): 3.95 µM
- GI50 (U251 CNS): 1.7 µM
- TGI (U251 CNS): 3.09 µM
- GI50 (UACC-257 melanoma): 1.86 µM
- TGI (UACC-257 melanoma): 3.45 µM
- GI50 (UACC-62 melanoma): 1.84 µM
- TGI (UACC-62 melanoma): 3.44 µM
- GI50 (UO-31 renal): 1.58 µM
- TGI (UO-31 renal): 3.06 µM

— PubChem BioAssay (NCI)
